Paper PMC5320532, “Intracellular drug bioavailability: a new predictor of system dependent drug disposition” (Scientific Reports, 2017)
“Also recorded” adds a separate entry of the source. Like-named read-outs stand apart in the source and are kept apart here.

Tests used:
in vitro [1] = settings: dog
P-gp [2] = test: Intracellular compound accumulation (Kp) and intracellular bioavailability (Fic); settings: dog, MDCK II wild-type cells
Procedure: (§1) To determine intracellular unbound compound concentrations, we measured intracellular fraction of unbound compound (fu,cell) in parallel with total intracellular compound accumulation (Ccell), as described below. Intracellular compound bioavailability (Fic) was calculated as the ratio between intracellular unbound compound concentration (Cu,cell = fu,cell∙Ccell) (the concentration available to bind intracellular targets) and the externally added compound concentration (Cmedium):
(§2) HEK293 cells were grown for two days in 24-well plates, as previously described[25]. MDCK cells were grown for two days in 96-well plates, prior to the intracellular compound accumulation experiments. The growth media were the same as described in the section ‘Cell line maintenance’ without addition of hygromycin B to avoid transporter inhibition.
(§3) Intracellular compound accumulation at steady-state was measured essentially as described before[25]. Briefly, cells were washed twice with HBSS and incubated for 45 min with solutions of single test compounds (in HBSS) on an orbital shaker (300 rpm) at 37 °C. At the end of the experiment, the remaining extracellular compound solutions were collected and cells were washed twice with ice-cold phosphate-buffered saline pH 7.4 (PBS). For hepatocytes in suspension, the cells were separated from the extracellular solutions by centrifugation (100 × g for 5 min). Compounds were extracted from the cells using acetonitrile/water (60:40) spiked with 50 nM warfarin (internal standard). Extracellular medium samples were diluted 10-fold with the same extraction solution. […] Protein concentrations were measured in representative wells of the plates using the BCA Protein Assay Reagent Kit (Thermo Fisher Scientific Inc.).
(§4) The ratio between total compound concentrations in the cells and in the medium (Kp) was calculated according to:
(§5) where Acell is the amount of compound in the cell samples, Vcell is the cell volume (6.5 μL/mg protein[80]), and Cmedium is the compound concentration in the medium sample.

P-gp [3] = test: as above; settings: dog, P-gp-KO (CRISPR) MDCK cells
Procedure: as §1, §2, §3, §4, §5

[4] = as above; settings: human, mock-transfected HEK293 cells
Procedure: as §1, §2, §3, §4, §5

[5] = Intracellular fraction of unbound compound (fu,cell), dialysis of cell homogenate; settings: human, mock-transfected HEK293 cell homogenate
OATP1B1 [6] = test: Intracellular compound accumulation (Kp) and intracellular bioavailability (Fic); settings: human, OATP1B1-transfected HEK293 cells
[7] = as above; format: in vitro ADME; settings: geometrical mean ± S.E.M.; for Kp at 45 min: freshly isolated human hepatocytes in suspension; for Kp at 24 h: human hepatocytes cultured for 24 h in monolayer format, Monolayer hepatocytes (human, 24 h culture)
Procedure: where Kp is the ratio Ccell/Cmedium.
Hepatocytes were isolated from human liver tissue obtained from two donors undergoing surgical resections at the Department of Surgery, Uppsala University Hospital. […] Isolation was performed using a two-step collagenase procedure, as previously described.
For the corresponding experiments in human hepatocytes, two cell culture configurations were used: freshly isolated cells in suspension, or cells cultivated as monolayers for 24 h. The freshly isolated cells were suspended directly after isolation at a concentration of 5 × 10^6 cells/ml in HBSS. The cell suspension (100 μl) was added to 96-well plates, which were immediately used for accumulation experiments. […] After cell attachment, medium was replaced by hepatocyte maintenance medium (Lonza) supplemented with insulin (10 μg/ml), transferrin (5.5 μg/ml), selenium (5 ng/ml), penicillin (100 units/ml), streptomycin (100 μg/ml), and dexamethasone (0.1 μM). Cells were kept in maintenance medium for 24 h, until the start of the intracellular compound accumulation experiments.

P-gp [8] = test: as above; settings: dog, P-gp-transfected MDCK cells
Procedure: as §1, §2, §3, §4, §5

[9] = Intracellular fraction of unbound compound (fu,cell), dialysis of cell homogenate; format: in vitro ADME; settings: human; OATP1B1-transfected HEK293 cell homogenate; geometrical mean ± S.E.M.; read-out: Cell binding (fu,cell)
Procedure: For intracellular fraction of unbound compound experiments, cell lines or primary cells were suspended to a concentration of 10 × 10^6 cells/ml in Hank’s balanced salt solution (HBSS). Cell suspensions were homogenized for 10 s with a VCX-500 ultrasonic processor (Sonics & Materials) at 20% intensity and used immediately for binding experiments.
Binding to cell homogenates at steady-state was measured using dialysis as previously described. […] Briefly, the cell homogenate was spiked with six randomly-chosen compounds. Homogenates were dialyzed for 4 h using a Rapid Equilibrium Dialysis device (Thermo Fisher Scientific Inc.). At the end of the incubation, uniform sample matrices were obtained by addition of blank homogenate to samples from the buffer chamber, and by addition blank buffer to samples from the homogenate chamber. Dilutions of samples from the homogenate chambers (10-fold and 100-fold) were prepared. […] Compounds in the supernatant were analyzed by ultra-performance liquid chromatography coupled to tandem mass spectrometry (UPLC-MS/MS), as described below.
The fraction of compound that was not bound to cell homogenate (fu,hom) was calculated according to: […]
where PAbuffer is the peak area of compound in the buffer chamber and PAhom is the peak area of compound in the homogenate chamber, both corrected for the peak area of the internal standard in the respective chamber. For each compound, the dilution of the homogenate sample where PAhom was closest to PAbuffer was used.
The fraction of unbound compound in the cell (fu,cell) was calculated according to: […]

[10] = as above; format: in vitro ADME; settings: freshly isolated human hepatocyte homogenate; geometrical mean ± S.E.M.; read-out: fu,cell hepatocytes
P-gp [11] = tested on: P-gp; design: method as in earlier work; settings: dot = substrate; collated from literature ref 74, 75, 76; cited from earlier work
OATP1B1 [12] = settings: dot = substrate; collated from literature ref 74, 75, 76; cited from earlier work
[13] = design: method as in PMID 19785645; settings: human subjects; co-administration of cyclosporine A ref 58; cited from earlier work
[14] = Intracellular fraction of unbound compound (fu,cell), dialysis of cell homogenate; settings: dog, homogenate of MDCK cells transfected with human P-gp
[15] = tested on: P-gp-KO (CRISPR) MDCK cells; settings: dog
Procedure: as §1, §2, §3, §4, §5

in vitro [16] = settings: human
[17] = tested on: P-gp-transfected MDCK cells (+ elacridar); settings: dog, MDCK-MDR1
[18] = tested on: mock-transfected HEK293 cells; settings: human
Procedure: as §1, §2, §3, §4, §5

[19] = tested on: P-gp-transfected MDCK cells; settings: dog
Procedure: as §1, §2, §3, §4, §5

[20] = tested on: OATP1B1-transfected HEK293 cells; settings: human
Procedure: as §1, §2, §3, §4, §5

P-gp [21] = test: in vitro; settings: dog
Procedure: as §1, §2, §3, §4, §5

MDCK II wild-type cells = settings: dog
Procedure: as §1, §2, §3, §4, §5

[22] = tested on: P-gp-transfected MDCK cells; test: Intracellular compound accumulation (Kp) and intracellular bioavailability (Fic); settings: 0.5 μM; ratio cP-gp-KO/P-gp-transfected
Procedure: as §1, §2, §3, §4, §5

[23] = tested on: primary human hepatocytes; test: Metabolic clearance (CLint) in primary human hepatocytes; format: in vitro ADME; settings: 1 μM; freshly isolated human hepatocytes in suspension vs after 24 h in monolayer
Procedure: Metabolic clearance (CLint) was determined, as previously described. […] At time points 0, 10, 30, and 60 min, the reaction was stopped by addition of acetonitrile (200 μl) spiked with 50 nM warfarin (internal standard). […] CLint was calculated as the product of the compound disappearance rate and incubation volume, normalized by the cell number.

SMILES	Kp at 45 min (P-gp [2])	Kp at 45 min, 0.5 μM (P-gp [3])	Kp at 45 min, 0.1 μM [4]	fraction unbound at 4 h [5]	Kp at 45 min, 0.1 μM (OATP1B1 [6])	Kp at 45 min [7]	Kp at 24 h [7]	Kp at 45 min, 0.5 μM (P-gp [8])	fraction unbound at 4 h [9]	fraction unbound at 4 h [10]	P-gp substrate (P-gp [11])	fraction unbound at 4 h [14]	other results
COc1ccc(CCN2CCC(Nc3nc4ccccc4n3Cc3ccc(F)cc3)CC2)cc1 [Astemizole]	1680 ± 71	2010 ± 200	821 ± 253	0.0018 ± 0.0006	738 ± 576	1990 ± 1090	1600 ± 308	995 ± 94	0.0013 ± 0.0004	0.00036 ± 0.00012	–	–	fraction unbound (in vitro [1]): 1e-05 ± 2e-05
CC(C)n1c(/C=C/C(O)CC(O)CC(=O)O)c(-c2ccc(F)cc2)c2ccccc21 (stereo not shown) [Fluvastatin]	35 ± 5	53 ± 4	45 ± 6	0.017 ± 0.003	94 ± 12	–	–	21 ± 2	0.015 ± 0.001	–	●	0.0099 ± 0.0026	OATP1B1 substrate (OATP1B1 [12]): ●; increase of AUC by cyclosporine A [13]: 3- to 4 fold
COc1ccc2c(c1)c(CC(=O)O)c(C)n2C(=O)c1ccc(Cl)cc1 [Indomethacin]	22 ± 2	25 ± 2	13 ± 2	0.053 ± 0.006	14 ± 1	50 ± 17	49 ± 4	18 ± 2	0.065 ± 0.004	0.048 ± 0.012	–	0.025 ± 0.005	–
CN(C)C(=O)C(CCN1CCC(O)(c2ccc(Cl)cc2)CC1)(c1ccccc1)c1ccccc1 [Loperamide]	–	–	–	–	–	–	–	–	–	–	●	–	intracellular bioavailability (Fic) [15]: 0.34±0.35; fraction unbound (in vitro [1]): 0.00051 ± 0.00051; fraction unbound (in vitro [16]): 0.0078 ± 0.0008; intracellular bioavailability (Fic) [17]: 0.33±0.33; intracellular bioavailability (Fic) [18]: 4.3±1.7; intracellular bioavailability (Fic) [19]: 0.13±0.13; intracellular bioavailability (Fic) [20]: 6.8±1.8; Kp (P-gp [21]): 987 ± 198; intracellular bioavailability (Fic) (MDCK II wild-type cells): 0.50±0.51
Cc1c(O)cccc1C(=O)N[C@@H](CSc1ccccc1)[C@H](O)CN1C[C@H]2CCCC[C@H]2C[C@H]1C(=O)NC(C)(C)C [Nelfinavir]	494 ± 74	1080 ± 50	337 ± 113	0.00039 ± 8e-05	652 ± 228	–	–	53 ± 19	0.00044 ± 0.0001	–	●	0.0001 ± 4e-05	Fic fold lower in P-gp-transfected than in cP-gp-KO MDCK cells [22]: 20 fold
O=C(O)C[C@H](O)C[C@H](O)/C=C/c1c(C2CC2)nc2ccccc2c1-c1ccc(F)cc1 [Pitavastatin]	11	13 ± 1	4.2 ± 0.3	0.023 ± 0.005	35 ± 3	–	–	11 ± 2	0.025 ± 0.006	0.017 ± 0.011	●	0.023 ± 0.005	OATP1B1 substrate (OATP1B1 [12]): ●; increase of AUC by cyclosporine A [13]: 5- to 15 fold
CC(C)c1nc(CN(C)C(=O)N[C@H](C(=O)N[C@@H](Cc2ccccc2)C[C@H](O)[C@H](Cc2ccccc2)NC(=O)OCc2cncs2)C(C)C)cs1 [Ritonavir]	–	–	–	–	–	–	–	–	–	–	●	–	metabolic clearance (CLint), suspension vs monolayer hepatocytes [23]: higher rates; also recorded: reduced
CN(CCOc1ccc(CC2SC(=O)NC2=O)cc1)c1ccccn1 (stereo not shown) [Rosiglitazone]	38 ± 7	67 ± 11	19 ± 2	0.058 ± 0.004	15 ± 2	152 ± 12	196 ± 17	30 ± 4	0.044 ± 0.001	0.02 ± 0.006	–	0.021 ± 0.003	–
CC(C)(C)NCC(O)COc1ccc(NC(=O)NC2CCCCC2)cc1 (stereo not shown) [Talinolol]	–	–	–	–	–	–	–	–	–	–	–	–	fraction unbound (in vitro [16]): 0.074 ± 0.003
